This is an account of results in patent US20190175554A1, “METHOD FOR TREATING PRURITUS AND/OR ITCH” (Neurim Pharmaceuticals (1991) Ltd., priority 2016, published 2019).

In experiment [1] the target is T1, TRPV1 (Homo sapiens, UniProt Q8NER1). Briefly: TRPV1 calcium influx assay. The class given is cell-based. Conditions: for inhibitory effect on TRPV1 mediated calcium influx (in words): 10 μM, significant = three or more SD from agonist mean (37.74% inhibition); for inhibition at 0.1 µM / inhibition at 0.5 µM / inhibition at 1 µM / inhibition at 5 µM / inhibition at 10 µM: read-out: Normalized % inhibition; for inhibition at 0.5 µM: Test conc 0.5 μM; for inhibition at 1 µM: Test conc 1 μM; for inhibition at 5 µM: Test conc 5 μM; for inhibition at 10 µM: Test conc 10 μM. As to the method:
Method. The ability of N-[2-(1H-indol-3-yl)-ethyl]-comanilamide, N-[2-(5-methoxy-indol-3-yl)-ethyl]-comanilamide and 2-methyl-4-oxo-4H-pyran-3-yl [2-(5-methoxy-1H-indol-3-yl)ethyl]carbamate to act as antagonists of TRPV1 was evaluated with a calcium influx assay. The signal elicited in the presence of the positive control agonist (0.1 μM capsaicin) was set to 100% and the signal in the presence of the antagonist (0.1 μM capsaicin+3 μM ruthenium red) was set to 0.

In experiment [2] the target is T1, TRPV1. Briefly: TRPV1 calcium influx assay. The class given is cell-based.
Experiment [3] deals with mice, formalin injected into the right hindpaw. Briefly: Formalin test, hindpaw licking time in mice. Conditions: 100 mg/kg intraperitoneally 30 min before formalin. The class given is in vivo, mouse. The protocol: The anti-pruritus activity of pyrone-indole compounds were assessed using this model.
Method. The noxious stimulus is an injection of dilute formalin under the skin of the dorsal surface of the right hindpaw. The response is the amount of time the animals spend licking the injected paw 5-10 minutes (early phase), or 20-30 minutes (late phase) after the injection of formalin. Mice (N=8 per group) were injected intraperitoneally with test compound (100 mg/kg), or morphine (4 mg/kg), or vehicle. Thirty minutes later, formalin (20 μl 2.5% in water) was injected by the subplantar route into the right hindpaw. Hindpaw licking time was recorded in consecutive 5 minute-intervals during the first 10 minutes (early phase), and from 15 to 35 minutes (late phase) after formalin injection.

Experiment [4] deals with young male subjects, UVB-irradiated skin. Briefly: UVB sunburn model in humans, cold pain threshold (CPT). The class given is in vivo, human. The protocol: (§1) The anti-pruritus effect of N-[2-(1H-indol-3-yl)-ethyl]-comanilamide was tested using the UVB sunburn model (R. Rolke et al. (2006), Quantitative sensory testing in the German Research Network on neuropathic pain (DFNS): standardized protocol and reference values, Pain, 123, 231-243) used as an art-accepted surrogate model of itch (Andersen et al., Acta Derm Venereol. 2015; 95(7):771-7. Human surrogate models of histaminergic and non-histaminergic itch.).
(§2) Twenty four young male subjects ([…]N-[2-(1H-indol-3-yl)-ethyl]-comanilamide in escalated doses (300 mg-900 mg) and 6 in the placebo group), were exposed to three times the minimal erythema dose (MED) of UVB light on an approximately 4×4 cm area on the upper part of the leg in the morning of Day (−1) pre-dose on Day 1 and 2.5 hours post—dose on the UVB-irradiated area.
(§3) UVB irradiation causes skin inflammation which is noxious and elicits pronounced inflammation related temperature and mechanical hyperalgesia at the UVB-irradiated site. This hyperalgesia peaks at about 20-24 hours post irradiation after which it slowly subsides. Quantitative sensory testing (QST) assesses characteristic sensory patterns in pain and pruritus models.
(§4) The UVB irradiated skin was obtained by irradiating the marked area (approximately 4×4 cm) of the skin of the upper part of the right leg by three times the MED as determined during the screening. This was done approximately 20 hours prior to dosing.
Cold pain thresholds (CPT) were determined. The mean threshold temperature of five consecutive measurements was calculated. All thresholds were obtained with ramped stimuli (1 C/s) that were terminated when the subject pressed a button.

The test system is the same in experiment [5]. Briefly: UVB sunburn model in humans, mechanical detection threshold (MDT) to von Frey hairs. The class given is in vivo, human. Conditions: baseline Day (−1) before the sunburn; for MDT feel sensation, Post sunburn - Change from Baseline: pre-dose. The protocol: as §1, §2, §3, §4
Mechanical detection threshold (MDT) to von Frey hairs was assessed by using a standardized set of modified von Frey hairs (Optihair; Marstock Nervtest, Marburg, Germany) exerting forces between 0.25 and 512 mN (rounded tip, 0.5 mm in diameter). Thresholds were determined by the method of limits with the geometric mean of a series of 5 ascending and descending stimulus intensities.

The next experiment addresses T2, hNav1.7 (Homo sapiens, UniProt Q15858).
T2 construct: expressed in transfected cells
Briefly: Block of hNav1.x channels expressed in mammalian cells, voltage protocol. The class given is cell-based. Conditions: blocking effects on hNav1.x channels, Table 3. As to the method: Effects of N-[2-(1H-indol-3-yl)-ethyl]-comanilamide, N-[2-(5-methoxy-indol-3-yl)-ethyl]-comanilamide and 2-methyl-4-oxo-4H-pyran-3-yl [2-(5-methoxy-1H-indol-3-yl)ethyl]carbamate on Nav1.x Channels Expressed in Mammalian Cells
Method. A block of hNav1.x channels was measured using the stimulus voltage pattern shown in FIG. 1; voltage potentials are indicated in Table 2, below. The pulse pattern repeated twice: before and 5 minutes after N-[2-(1H-indol-3-yl)-ethyl]-comanilamide, N-[2-(5-methoxy-indol-3-yl)-ethyl]-comanilamide and 2-methyl-4-oxo-4H-pyran-3-yl[2-(5-methoxy-1H-indol-3-yl)ethyl]carbamate addition and peak current amplitudes at […] was measured (ITP1 and ITP2).

The mark [6] stands for this setting: Test conc 0.1 μM, vs 0.1 μM capsaicin.
Setting [7] is: read-out: Normalized % inhibition.

“And” between values parts separate entries of the source, which are not always exact repeats. Identical values can stand only once. Like-named read-outs stand apart in the source and are kept apart here.

T1 sequence (Q8NER1 whole entry, species assumed): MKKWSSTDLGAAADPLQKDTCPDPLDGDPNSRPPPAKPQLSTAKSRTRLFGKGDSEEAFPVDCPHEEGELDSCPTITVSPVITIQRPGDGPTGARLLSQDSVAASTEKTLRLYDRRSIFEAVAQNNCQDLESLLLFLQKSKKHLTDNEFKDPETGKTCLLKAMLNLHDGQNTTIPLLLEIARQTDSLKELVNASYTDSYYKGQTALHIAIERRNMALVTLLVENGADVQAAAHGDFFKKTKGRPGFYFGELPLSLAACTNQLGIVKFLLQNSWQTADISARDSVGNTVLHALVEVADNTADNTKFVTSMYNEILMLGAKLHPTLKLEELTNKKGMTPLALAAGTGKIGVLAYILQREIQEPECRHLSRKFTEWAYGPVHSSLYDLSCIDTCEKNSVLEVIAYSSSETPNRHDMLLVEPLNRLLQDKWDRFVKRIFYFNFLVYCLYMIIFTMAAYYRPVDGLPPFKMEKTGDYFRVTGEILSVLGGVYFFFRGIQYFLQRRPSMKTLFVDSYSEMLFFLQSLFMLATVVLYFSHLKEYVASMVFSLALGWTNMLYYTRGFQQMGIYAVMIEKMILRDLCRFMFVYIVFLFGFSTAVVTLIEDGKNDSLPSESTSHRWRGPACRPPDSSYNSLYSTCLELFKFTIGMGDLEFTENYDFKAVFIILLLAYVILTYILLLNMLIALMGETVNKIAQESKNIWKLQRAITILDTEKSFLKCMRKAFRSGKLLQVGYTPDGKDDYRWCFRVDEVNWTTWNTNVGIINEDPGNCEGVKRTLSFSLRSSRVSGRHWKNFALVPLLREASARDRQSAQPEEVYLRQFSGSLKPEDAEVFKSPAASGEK
T2 sequence (Q15858 whole entry): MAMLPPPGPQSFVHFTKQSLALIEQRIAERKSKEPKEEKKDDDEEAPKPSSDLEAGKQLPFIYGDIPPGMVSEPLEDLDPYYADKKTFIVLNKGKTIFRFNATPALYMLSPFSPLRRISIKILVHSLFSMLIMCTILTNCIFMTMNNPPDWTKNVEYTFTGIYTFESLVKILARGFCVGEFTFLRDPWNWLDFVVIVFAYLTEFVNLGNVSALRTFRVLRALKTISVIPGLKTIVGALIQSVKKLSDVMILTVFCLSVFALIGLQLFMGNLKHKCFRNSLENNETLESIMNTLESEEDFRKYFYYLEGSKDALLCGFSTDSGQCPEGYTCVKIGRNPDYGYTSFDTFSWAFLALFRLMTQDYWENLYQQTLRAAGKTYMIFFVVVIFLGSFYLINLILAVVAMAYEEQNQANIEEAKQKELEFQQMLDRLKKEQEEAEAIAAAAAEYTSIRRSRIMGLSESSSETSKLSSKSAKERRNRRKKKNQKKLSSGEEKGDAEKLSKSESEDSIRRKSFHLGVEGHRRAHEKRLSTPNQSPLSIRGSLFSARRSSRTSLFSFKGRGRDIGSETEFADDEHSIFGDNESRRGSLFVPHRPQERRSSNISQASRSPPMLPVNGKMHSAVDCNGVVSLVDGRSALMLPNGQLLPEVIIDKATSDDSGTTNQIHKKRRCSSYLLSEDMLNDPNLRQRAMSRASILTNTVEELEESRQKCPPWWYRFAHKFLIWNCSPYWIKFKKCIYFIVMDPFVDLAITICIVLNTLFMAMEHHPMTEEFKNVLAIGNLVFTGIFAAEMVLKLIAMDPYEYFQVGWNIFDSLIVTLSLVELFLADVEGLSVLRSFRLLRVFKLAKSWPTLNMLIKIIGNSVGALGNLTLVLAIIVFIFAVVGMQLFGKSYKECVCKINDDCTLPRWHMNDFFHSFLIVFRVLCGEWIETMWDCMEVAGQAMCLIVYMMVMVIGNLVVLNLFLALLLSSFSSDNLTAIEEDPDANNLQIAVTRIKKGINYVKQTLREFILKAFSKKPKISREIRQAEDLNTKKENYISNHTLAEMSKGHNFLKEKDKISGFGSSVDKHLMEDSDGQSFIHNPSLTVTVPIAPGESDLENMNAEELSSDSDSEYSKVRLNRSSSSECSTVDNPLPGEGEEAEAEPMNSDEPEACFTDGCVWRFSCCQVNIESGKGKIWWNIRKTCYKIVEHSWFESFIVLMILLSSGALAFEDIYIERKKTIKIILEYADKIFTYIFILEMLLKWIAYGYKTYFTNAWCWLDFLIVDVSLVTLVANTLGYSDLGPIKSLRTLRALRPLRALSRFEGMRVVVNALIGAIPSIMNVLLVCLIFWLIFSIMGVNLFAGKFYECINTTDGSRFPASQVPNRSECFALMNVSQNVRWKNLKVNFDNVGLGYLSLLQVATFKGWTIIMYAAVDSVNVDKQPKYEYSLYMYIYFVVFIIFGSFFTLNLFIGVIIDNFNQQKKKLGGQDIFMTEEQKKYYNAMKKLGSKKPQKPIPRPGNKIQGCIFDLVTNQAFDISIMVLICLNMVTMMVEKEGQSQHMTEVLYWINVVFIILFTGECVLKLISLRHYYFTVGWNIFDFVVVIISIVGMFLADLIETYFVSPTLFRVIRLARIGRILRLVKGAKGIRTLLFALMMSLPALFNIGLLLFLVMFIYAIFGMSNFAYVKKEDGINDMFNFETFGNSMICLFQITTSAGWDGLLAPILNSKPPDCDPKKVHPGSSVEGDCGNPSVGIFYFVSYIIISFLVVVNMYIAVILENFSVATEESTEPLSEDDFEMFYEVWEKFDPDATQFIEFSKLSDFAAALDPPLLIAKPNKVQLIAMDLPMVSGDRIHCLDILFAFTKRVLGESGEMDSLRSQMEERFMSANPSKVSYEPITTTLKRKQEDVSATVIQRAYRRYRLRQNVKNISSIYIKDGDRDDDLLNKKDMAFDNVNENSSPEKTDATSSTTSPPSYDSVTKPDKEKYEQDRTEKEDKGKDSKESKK

On to `COc1ccc2[nH]cc(CCNC(=O)c3cc(=O)cco3)c2c1` [N-[2-(5-methoxy-indol-3-yl)-ethyl]-comanilamide], for which the “inhibitory effect on TRPV1 mediated calcium influx (in words)” value at TRPV1 [1] was “significant inhibitory effect”. Moreover, at TRPV1 [1] (setting [6]), the inhibition at 0.1 µM worked out at 15.2%. Further, the inhibition at 0.5 µM on TRPV1 [1] (vs 0.1 μM capsaicin) was 1.19%. The inhibition at 1 µM at TRPV1 [1] (vs 0.1 μM capsaicin) worked out at 36.4%. Also, on TRPV1 [1] (vs 0.1 μM capsaicin), the inhibition at 5 µM came to 35.4%. At TRPV1 [1] (vs 0.1 μM capsaicin), the inhibition at 10 µM was determined as 42.6%. Also, the “Normalized % Activation” value at TRPV1 [2] (Test conc 0.1 μM) was determined as 18.12%; at TRPV1 [2] (Test conc 0.5 μM) it was 11.95%; on TRPV1 [2] (Test conc 1 μM), 14.04%; at TRPV1 [2] (Test conc 5 μM), 12.92%; on TRPV1 [2] (Test conc 10 μM), 13.67%.
On to `COc1ccc2[nH]cc(CCNC(=O)Oc3c(C)occc3=O)c2c1` [2-methyl-4-oxo-4H-pyran-3-yl [2-(5-methoxy-1H-indol-3-yl)ethyl]carbamate], for which, in experiment [3], the “inhibition of the licking response, early phase” value came to 54% and the “inhibition of the licking response, late phase” value worked out at 86%. Moreover, at TRPV1 [1], the “inhibitory effect on TRPV1 mediated calcium influx (in words)” value is reported as “significant inhibitory effect” and the inhibition at 0.1 µM was -1.78%. Besides, the “Normalized % Activation” value at TRPV1 [2] (Test conc 0.1 μM) is 12.65%. Further, the “Normalized % Activation” value at TRPV1 [2] (Test conc 0.5 μM) came to 9.58%. Also, the “Normalized % Activation” value on TRPV1 [2] (Test conc 1 μM) worked out at 12.16%. For the same molecule, the “Normalized % Activation” value at TRPV1 [2] (Test conc 5 μM) is 5.75%. Besides, the “Normalized % Activation” value at TRPV1 [2] (Test conc 10 μM) is 12.26%. Besides, on TRPV1 [2] (setting [7]), the inhibition at 0.5 µM was determined as 23.6%, the inhibition at 1 µM is 45.1%, the inhibition at 5 µM was 44.6% and the inhibition at 10 µM came to 41.5%.
Regarding `O=C(NCCc1c[nH]c2ccccc12)c1cc(=O)cco1` [N-[2-(1H-indol-3-yl)-ethyl]-comanilamide], the “CPT, Post sunburn” value in experiment [4] (600 mg group, after UVB, pre-dose) came out at 16.03 °C. Further, the “CPT, Pre sunburn” value in experiment [4] (600 mg group, before UVB and before dosing) stood at 5.55 °C. Moreover, the “CPT, 2.5 h Post Drug Administration” value in experiment [4] (600 mg, 2.5 h post dose) stood at 12.75 °C. In experiment [4] (human UVB sunburn model, analgesic/anti-pruritus effects), the “time of peak response post dosing” value is reported as 2.5 h. Moreover, the “inhibition of the licking response, early phase” value in experiment [3] (100 mg/kg) was 57% and 38%. Also, the “inhibition of the licking response, late phase” value in experiment [3] (100 mg/kg) was 90% and 62%. Also, the figures for the “MDT feel sensation, Post sunburn - Change from Baseline” value in experiment [5] (300 mg group), in experiment [5] (600 mg group) and in experiment [5] (900 mg group) were −10.92 mN, −3.52 mN and −7.24 mN, respectively. Also, the “MDT feel sensation, 2.5 h post Drug administration - Change from Baseline” value is listed as −12.13 mN in experiment [5] (300 mg), −0.017 mN in experiment [5] (600 mg) and 0.84 mN in experiment [5] (900 mg). On TRPV1 [1], the “inhibitory effect on TRPV1 mediated calcium influx (in words)” value is reported as “significant inhibitory effect”. For the same molecule, the inhibition at 0.1 µM on TRPV1 [1] (setting [6]) came out at 9.88%. Besides, on TRPV1 [1] (vs 0.1 μM capsaicin), the inhibition at 0.5 µM amounted to 2.44%. The inhibition at 1 µM on TRPV1 [1] (vs 0.1 μM capsaicin) worked out at 31.1%. At TRPV1 [1] (vs 0.1 μM capsaicin), the inhibition at 5 µM was determined as 26.1%. Moreover, at TRPV1 [1] (vs 0.1 μM capsaicin), the inhibition at 10 µM came out at 37.7%. Further, the “selectivity among hNav1.x channels (in words)” value at hNav1.7 is “preferential inhibition of Nav1.7 channels”. Further, the “Normalized % Activation” value at TRPV1 [2] (Test conc 0.1 μM) stood at 23.07%; on TRPV1 [2] (Test conc 0.5 μM), 11.93%; at TRPV1 [2] (Test conc 1 μM) it was 10.51%; on TRPV1 [2] (Test conc 5 μM), 8.71%; on TRPV1 [2] (Test conc 10 μM), 10.13%.

By inhibition is commonly meant the relative decrease from the control value, in per cent.
